Results published in article PMC7284125, “Identification of annotated bioactive molecules that impair motility of the blood fluke Schistosoma mansoni” (International Journal for Parasitology: Drugs and Drug …, 2020).
Read-outs that look alike come from different tables or passages of the source.

How the values were obtained:
[1] = tested on: S. mansoni adult worms; experiment: Motility assay on adult parasites (pixel displacement, relative to DMSO control); assay type: cell-based, Schistosoma mansoni; settings: for Fractional motility: 10 μM
Procedure: Adult parasites were collected from 40 day-old female CD1 mice (Charles River) previously inoculated by the tail infection method ([Lewis, 2001]). Six weeks post-infection, mice were sacrificed, and adult worms extracted after perfusion of in the hepatic portal vein and mesenteric venules ([Lewis, 2001]). Animal procedures were reviewed and approved by the Facility Animal Care Committee of McGill University (Protocol No. 3346) and were conducted in accordance with the guidelines of the Canadian Council on Animal Care.
(§1) Schistosomulae (200/well) and adult parasites (unpaired worms) were maintained in 300 μL OPTI-MEM with 5% dialyzed FBS (without antibiotics) and exposed to compounds at 1 and 10 μM for 24 h. A kinetic assay consisting of 1, 3, 6 and 12 h incubation times was performed on selected hits by motility monitoring using a stereo microscope (SMZ1270, Nikon) for adults and an inverted microscope for schistosomulae (eclipse TE2000-U, Nikon) connected to a monochrome camera (DS-Qi2, Nikon) for image acquisition. Images were recorded at a rate of 10 frames/s for a period of 1 min and videos were analyzed using ImageJ software (version 1.41, NIH, USA). Parasite movement quantification and data analysis protocols were applied using the pixel displacement method ([Patocka et al., 2014]; [Rashid et al., 2015]) and compared to control parasites treated with DMSO. Parasites were then washed several times in Opti-MEM, 5% FBS and incubated up to an additional three days (schistosomulae) or five days (adult worms) at 37 °C, 5% CO2 and motility was recorded as described above.

[2] = tested on: S. mansoni schistosomulae; experiment: Phenotypic primary screen assay on schistosomulae (phenotype; viability by methylene blue dye exclusion); assay type: cell-based, Schistosoma mansoni; settings: three-day-old schistosomulae, 10 μM, 24 h; estimated 5 days post compound exposure
Procedure: Puerto Rican strain Biomphalaria glabrata snails infected with S. mansoni were kindly provided by Dr. Fred Lewis (Biomedical Research Institute and BEI Resources, MD, USA). Schistosomulae were obtained by exposing six to eight weeks-old snails to continuous light for 2 h at 32 °C. […] At this point, animals with internal dark granulations and with no observable body contraction/relaxation cycles were considered dead.
Schistosomulae were monitored under a stereo microscope (SMZ1270, Nikon). Phenotypic observations were made by analyzing schistosomulae, 24 h after drug addition to assess any immediate effect and five days post-compound exposure to observe long-term impacts on both the movement and overall body shape in comparison to control animals exposed to DMSO only.

[3] = tested on: S. mansoni schistosomulae; experiment: as above; assay type: cell-based; settings: Schistosoma mansoni
[4] = tested on: S. mansoni schistosomulae; experiment: Motility assay on schistosomulae (pixel displacement, relative to DMSO control); assay type: cell-based, Schistosoma mansoni; settings: for activity at 1 µM: Schistosoma mansoni, read-out: Fractional motility; for motility phenotype in words: after 24 h exposure
Procedure: Puerto Rican strain Biomphalaria glabrata snails infected with S. mansoni were kindly provided by Dr. Fred Lewis (Biomedical Research Institute and BEI Resources, MD, USA). Schistosomulae were obtained by exposing six to eight weeks-old snails to continuous light for 2 h at 32 °C. The resulting suspension of cercaria was then mechanically transformed as described ([Lewis, 2001]) and cultured in Opti-MEM/antibiotics (Thermo Fisher Scientific, Waltham, MA) containing 100 μg/mL streptomycin and 100 units/ml penicillin supplemented with 5% fetal bovine serum (FBS; Thermo Fisher). Parasite cultures were incubated at 37 °C with 5% CO2 for at least 10 days with no apparent loss of viability. At this point, animals with internal dark granulations and with no observable body contraction/relaxation cycles were considered dead.
as §1

[5] = secondary screen, D1, Female adult worms
[6] = secondary screen, D1, Male adult worms
[7] = secondary screen, D5, Female adult worms
[8] = secondary screen, D5, Male adult worms
[9] = three-day-old schistosomulae, 10 μM, 24 h, calculated 5 days post compound exposure, read-out: Viability (%)
[10] = schistosomulae, 1h exposure, read at D1, 10 µM
[11] = schistosomulae, 1h exposure, read at D5, 10 µM
[12] = schistosomulae, 3h exposure, read at D1, 10 µM
[13] = schistosomulae, 3h exposure, read at D5, 10 µM
[14] = schistosomulae, 6h exposure, read at D1, 10 µM
[15] = schistosomulae, 6h exposure, read at D5, 10 µM
[16] = schistosomulae, secondary screen, 24h exposure, read at D1, 1 µM
[17] = schistosomulae, secondary screen, 24h exposure, read at D1, 10 µM
[18] = schistosomulae, secondary screen, 24h exposure, read at D5, 10 µM
[19] = 120 h, schistosomulae, secondary screen, 24h exposure, read at D5, 1 µM
[20] = Selleckchem customized library secondary screen, 24h, D1, 10 µM
[21] = Selleckchem customized library secondary screen, 24h, D5, 10 µM

Row | Compound | Fractional motility [1, 5] | Fractional motility [1, 6] | Fractional motility [1, 7] | Fractional motility [1, 8] | Phenotype [2] | viability at 10 µM [3, 9] [%] | Fractional motility [4, 17] | Fractional motility [4, 18] | activity at 1 µM [4, 19] [%] | activity at 1 µM [4, 16] [%] | further results
1 | COC(=O)C1=CCCN(C)C1 [Arecoline] | -0.92 | -0.79 | -0.72 | -0.0374 | round body, blebbing | 96.5 | -0.93 | 1.49 | – | – | Fractional motility ([1]; Arecoline and analogs, D1, Female adult worms): -0.92; Fractional motility ([1]; Arecoline and analogs, D1, Male adult worms): -0.79; Fractional motility ([1]; Arecoline and analogs, D5, Female adult worms): -0.72; Fractional motility ([1]; Arecoline and analogs, D5, Male adult worms): -0.0374; motility phenotype in words ([1]; adults, after 24 h exposure): nearly complete paralysis; Fractional motility ([4]; Arecoline and analogs, 24h, D1, 10 µM): -0.93; Fractional motility ([4]; Arecoline and analogs, 24h, D5, 10 µM): 1.49; activity at 1 µM ([4]; 120 h, Arecoline and analogs, 24h, D5, 1 µM): 122%; activity at 1 µM ([4]; Arecoline and analogs, 24h, D1, 1 µM): -93%; Fractional motility [4, 10]: -0.93; Fractional motility [4, 11]: -0.87; Fractional motility [4, 12]: -0.70; Fractional motility [4, 13]: -0.72; Fractional motility [4, 14]: -0.86; Fractional motility [4, 15]: -0.49; motility phenotype in words ([4]; schistosomulae): short term, pronounced paralysis; Fractional motility [4, 16]: -0.93; Fractional motility ([4]; schistosomulae, secondary screen, 24h exposure, read at D5, 1 µM): 1.22
2 | CNCc1ccc(C)c(NC(=O)c2ccc(Nc3nc(-c4ccccc4)c4ccccc4n3)cc2)c1 [BMS-833923] | -0.84 | -0.59 | -0.64 | 0.14 | big, granulated | 32.5 | 10.40 | -0.90 | -48 | 10 | –
3 | CN(C)CC/C=C1/c2ccccc2Sc2ccc(Cl)cc21 [Chlorprothixene] | 2.18 | 2.53 | 0.23 | 0.16 | elongated | 99 | – | – | – | – | activity at 1 µM ([4]; 120 h, Selleckchem customized library secondary screen, 24h, D5, 1 µM): 207%; Fractional motility [4, 20]: 73.31; Fractional motility [4, 21]: 9.20; motility phenotype in words ([4]; schistosomulae): high levels of hypermotility
4 | CCN(CC)CCOc1ccc(C(=C(Cl)c2ccccc2)c2ccccc2)cc1 [Clomifene] | -0.44 | – | -0.03 | -0.17 | big, granulated | 100 | 1.47 | 0.15 | 49 | 12 | –
5 | CN1CCN(C2=Nc3cc(Cl)ccc3Nc3ccccc32)CC1 [Clozapine] | 2.39 | 2.19 | -0.70 | 0.45 | elongated | 98 | 23.43 | -0.13 | 121 | 625 | –
6 | C=C1C(=O)O[C@@H]2/C=C(\C)CC/C=C(\C)CC[C@@H]12 [Costunolide] | -0.10 | – | -0.83 | – | big, granulated | 1.5 | -0.92 | -0.94 | 16 | -57 | Fractional motility [4, 10]: -0.77; Fractional motility [4, 11]: -0.29; Fractional motility [4, 12]: 0.34; Fractional motility [4, 13]: 1.03; Fractional motility [4, 14]: 2.25; Fractional motility [4, 15]: -0.56; motility in extended assay with reduced incubation times, in words ([4]; three-day old schistosomulae, incubation 1 h, 3 h, 6 h): did not exhibit a significant change before the 24 hr incubation cut-off
7 | CN(C)[C@@H](CCOc1cccc2ccccc12)c1ccccc1 [Dapoxetine] | 2.14 | 2.05 | -0.24 | -0.50 | elongated, granulated | 97.5 | – | – | – | – | activity at 1 µM ([4]; Selleckchem customized library secondary screen, 24h, D1, 1 µM): 253%; Fractional motility [4, 20]: 69.58; Fractional motility [4, 21]: 15.51
8 | NC(=O)C(c1ccccc1)(c1ccccc1)[C@@H]1CCN(CCc2ccc3c(c2)CCO3)C1 [Darifenacin] | 1.90 | 3.54 | -0.69 | -0.23 | elongated, granulated | – | -0.70 | 0.35 | -59 | -60 | viability at 10 µM [3]: 98.5%
9 | CN(C)CCC[C@@]1(c2ccc(F)cc2)OCc2cc(C#N)ccc21 [Escitalopram] | 2.54 | 6.67 | 0.95 | 0.26 | abnormal morphology | 98 | 5.42 | 0.71 | 16 | 361 | –
10 | C[C@]12CC[C@@H]3c4ccc(O)cc4CC[C@H]3[C@@H]1CC[C@@H]2O [Estradiol] | -0.35 | 0.83 | 0.13 | 0.26 | blebbing | 98 | 2.93 | 0.31 | 23 | 87 | –
11 | CCCCCCCCc1ccc(CCC(N)(CO)CO)cc1 [Fingolimod] | -0.39 | 0.65 | -0.09 | -0.15 | dark, granulated | 0 | 2.04 | -1.00 | 151 | 180 | –
12 | CNCCC(Oc1ccc(C(F)(F)F)cc1)c1ccccc1 (stereo not drawn) [Fluoxetine] | 1.96 | 2.26 | 0.45 | -0.0243 | elongated | 98.5 | 15.72 | 0.95 | 105 | – | –
13 | COCCCC/C(=N\OCCN)c1ccc(C(F)(F)F)cc1 [Fluvoxamine] | 1.69 | 4.13 | 0.13 | 0.22 | elongated | 97 | 10.49 | 3.18 | 99 | 812 | –
14 | C#C[C@]1(O)C=C[C@H]2[C@@H]3CCC4=CC(=O)CC[C@@H]4[C@H]3CC[C@@]21CC [Gestodene] | 1.24 | 3.68 | – | – | granulated | 98 | 4.27 | -0.32 | -29 | 51 | –
